According to PMC7915185 (Molecules, 2021):

What was measured:
[1] = molecular target: T1, H1N1 (A/WSN/1933) hemagglutinin (HA) protein (Influenza A virus, UniProt P03454); assay: biochemical; type: binding, influenza virus H1N1 (A/WSN/1933)
T1 construct: purchased Sino Biological Inc. (Beijing, China)

[2] = molecular target: H5N1 (A/Hong Kong/483/97) hemagglutinin (HA) protein (Influenza A virus, UniProt Q77XR4); type: binding, influenza virus H5N1 (A/Hong Kong/483/97); details: pH 7.4
HA = details: in our previous work; cited from earlier work

In the case of `C=C(C)[C@@H]1CC[C@]2(C(=O)O)CC[C@]3(C)[C@H](CC[C@@H]4[C@@]5(C)CC[C@H](O)C(C)(C)[C@@H]5CC[C@]43C)[C@@H]12` [BA, betulinic acid], the “thermodynamic dissociation constant KD” value ([1]; pH 7.4) is reported as “no affinity” and the “thermodynamic dissociation constant KD” value [2] is reported as “no significant affinity”.
In the case of `CC1(C)[C@@H](O)CC[C@]2(C)[C@H]3C(=O)C=C4[C@@H]5C[C@@](C)(C(=O)O)CC[C@]5(C)CC[C@@]4(C)[C@]3(C)CC[C@@H]12` [GA, glycyrrhetinic acid], the Kd [1] is reported as 584 µM and the “thermodynamic dissociation constant KD” value [2] is reported as “no significant affinity”.
With `CC1(C)CC[C@]2(C(=O)O)CC[C@]3(C)C(=CC[C@@H]4[C@@]5(C)CC[C@H](O)C(C)(C)[C@@H]5CC[C@]43C)[C@@H]2C1` [OA, oleanolic acid] the Kd [1] was 31.1 µM.
`C=C(C)[C@@H]1CC[C@]2(C(=O)OCCOCCOCCOCCOCCOCCn3cc(CCC(=O)N[C@@H](CC(=O)N[C@@H]4O[C@H](CO)[C@@H](O[C@@H]5O[C@H](CO)[C@@H](O[C@@H]6O[C@H](CO[C@H]7O[C@H](CO)[C@@H](O)[C@H](O)[C@@H]7O[C@@H]7O[C@H](CO)[C@@H](O[C@@H]8O[C@H](CO[C@]9(C(=O)O)C[C@H](O)[C@@H](NC(C)=O)[C@H]([C@H](O)[C@H](O)CO)O9)[C@H](O)[C@H](O)[C@H]8O)[C@H](O)[C@H]7NC(C)=O)[C@@H](O)[C@H](O[C@H]7O[C@H](CO)[C@@H](O)[C@H](O)[C@@H]7O[C@@H]7O[C@H](CO)[C@@H](O[C@@H]8O[C@H](CO[C@]9(C(=O)O)C[C@H](O)[C@@H](NC(C)=O)[C@H]([C@H](O)[C@H](O)CO)O9)[C@H](O)[C@H](O)[C@H]8O)[C@H](O)[C@H]7NC(C)=O)[C@@H]6O)[C@H](O)[C@H]5NC(C)=O)[C@H](O)[C@H]4NC(C)=O)C(=O)O)nn3)CC[C@]3(C)[C@H](CC[C@@H]4[C@@]5(C)CC[C@H](O)C(C)(C)[C@@H]5CC[C@]43C)[C@@H]12` [SCT-Asn-BA] showed a Kd [1] of 6.89 µM.
In the case of `CC(=O)N[C@@H]1[C@@H](O)[C@H](O[C@@H]2O[C@H](CO)[C@@H](O[C@@H]3O[C@H](CO[C@H]4O[C@H](CO)[C@@H](O)[C@H](O)[C@@H]4O[C@@H]4O[C@H](CO)[C@@H](O[C@@H]5O[C@H](CO[C@]6(C(=O)O)C[C@H](O)[C@@H](NC(C)=O)[C@H]([C@H](O)[C@H](O)CO)O6)[C@H](O)[C@H](O)[C@H]5O)[C@H](O)[C@H]4NC(C)=O)[C@@H](O)[C@H](O[C@H]4O[C@H](CO)[C@@H](O)[C@H](O)[C@@H]4O[C@@H]4O[C@H](CO)[C@@H](O[C@@H]5O[C@H](CO[C@]6(C(=O)O)C[C@H](O)[C@@H](NC(C)=O)[C@H]([C@H](O)[C@H](O)CO)O6)[C@H](O)[C@H](O)[C@H]5O)[C@H](O)[C@H]4NC(C)=O)[C@@H]3O)[C@H](O)[C@H]2NC(C)=O)[C@@H](CO)O[C@H]1NC(=O)C[C@H](NC(=O)CCc1cn(CCOCCOCCOCCOCCOCCOC(=O)[C@@]2(C)CC[C@]3(C)CC[C@]4(C)C(=CC(=O)[C@@H]5[C@@]6(C)CC[C@H](O)C(C)(C)[C@@H]6CC[C@]54C)[C@@H]3C2)nn1)C(=O)O` [SCT-Asn-GA], the Kd [1] is reported as 16.4 µM.
Work on `CC(=O)N[C@@H]1[C@@H](O)[C@H](O[C@@H]2O[C@H](CO)[C@@H](O[C@@H]3O[C@H](CO[C@H]4O[C@H](CO)[C@@H](O)[C@H](O)[C@@H]4O[C@@H]4O[C@H](CO)[C@@H](O[C@@H]5O[C@H](CO[C@]6(C(=O)O)C[C@H](O)[C@@H](NC(C)=O)[C@H]([C@H](O)[C@H](O)CO)O6)[C@H](O)[C@H](O)[C@H]5O)[C@H](O)[C@H]4NC(C)=O)[C@@H](O)[C@H](O[C@H]4O[C@H](CO)[C@@H](O)[C@H](O)[C@@H]4O[C@@H]4O[C@H](CO)[C@@H](O[C@@H]5O[C@H](CO[C@]6(C(=O)O)C[C@H](O)[C@@H](NC(C)=O)[C@H]([C@H](O)[C@H](O)CO)O6)[C@H](O)[C@H](O)[C@H]5O)[C@H](O)[C@H]4NC(C)=O)[C@@H]3O)[C@H](O)[C@H]2NC(C)=O)[C@@H](CO)O[C@H]1NC(=O)C[C@H](NC(=O)CCc1cn(CCOCCOCCOCCOCCOCCOC(=O)[C@]23CCC(C)(C)C[C@H]2C2=CC[C@@H]4[C@@]5(C)CC[C@H](O)C(C)(C)[C@@H]5CC[C@@]4(C)[C@]2(C)CC3)nn1)C(=O)O` [SCT-Asn-OA] yielded a Kd [1] of 11.2 µM.
With `CC(=O)N[C@@H]1[C@@H](O)[C@H](O[C@@H]2O[C@H](CO)[C@@H](O[C@@H]3O[C@H](CO[C@H]4O[C@H](CO)[C@@H](O)[C@H](O)[C@@H]4O[C@@H]4O[C@H](CO)[C@@H](O[C@@H]5O[C@H](CO[C@]6(C(=O)O)C[C@H](O)[C@@H](NC(C)=O)[C@H]([C@H](O)[C@H](O)CO)O6)[C@H](O)[C@H](O)[C@H]5O)[C@H](O)[C@H]4NC(C)=O)[C@@H](O)[C@H](O[C@H]4O[C@H](CO)[C@@H](O)[C@H](O)[C@@H]4O[C@@H]4O[C@H](CO)[C@@H](O[C@@H]5O[C@H](CO[C@]6(C(=O)O)C[C@H](O)[C@@H](NC(C)=O)[C@H]([C@H](O)[C@H](O)CO)O6)[C@H](O)[C@H](O)[C@H]5O)[C@H](O)[C@H]4NC(C)=O)[C@@H]3O)[C@H](O)[C@H]2NC(C)=O)[C@@H](CO)O[C@H]1NC(=O)C[C@H](NC(=O)CCc1cn(CCOCCOCCOCCOCCOCCOC(=O)[C@]23CC[C@@H](C)[C@H](C)[C@H]2C2=CC[C@@H]4[C@@]5(C)CC[C@H](O)C(C)(C)[C@@H]5CC[C@@]4(C)[C@]2(C)CC3)nn1)C(=O)O` [SCT-Asn-UA] the Kd [1] was 289 µM.
In the case of `C[C@H]1[C@H](C)CC[C@]2(C(=O)O)CC[C@]3(C)C(=CC[C@@H]4[C@@]5(C)CC[C@H](O)C(C)(C)[C@@H]5CC[C@]43C)[C@H]12` [UA, ursolic acid], the Kd [1] is reported as 137 µM and the “thermodynamic dissociation constant KD” value [2] is reported as “no significant affinity”.
For Sialylglycopeptide [SGP], the “affinity to HA (SPR)” value (HA) is given as “no affinity” and the “thermodynamic dissociation constant KD” value [2] is given as “no affinity”.
